# Key:
# [1] = tested on: thymic stromal lymphopoietin (TSLP); experiment: Circulating (serum) TSLP level over time after topical MC903; type: in vivo, mice; details: topical MC903, treatment stopped on Day 7; fell abruptly by Day 9
# Source text: FIG. 3A-3C comprise graphs illustrating data derived from topical treatment of B6 mice with EtOH or MC903 (2 nmol) until […]. Mice were taken at different time points post treatment initiation as indicated. FIG. 3A is a graph illustrating the percentage of Tregs out of CD4+ T cells in the spleen and blood of B6 mice over 18 days. FIG. 3B illustrates the absolute numbers of Tregs in the spleen of B6 mice over 18 days. FIG. 3C illustrates the serum thymic stromal lymphopoietin (TSLP) level change over time in B6 mice over 18 days.
# Next, the kinetics of the systemic increase in Treg levels was investigated after topical MC903 treatment (treatment stopped on Day 7). The absolute number and the fraction of Tregs increased to a peak between days 6 and 9 and gradually declined thereafter in the spleen and the blood of MC903-treated mice (FIGS. 3A-3B). Circulating TSLP levels peaked at Day 6 and fell abruptly by Day 9 (FIG. 3C).
# NOD mice = experiment: NOD mouse model of type I diabetes, topical MC903; type: in vivo
# Source text: FIGS. 5A-5B comprise graphs illustrating data derived from topical treatment of NOD mice with EtOH or MC903 (2 nmol) 3 times/week every other week at Week 5 of age; treatment was stopped at Week 15 of age. FIG. 5A illustrates the percentage of Tregs out of CD4+ T cells in the blood of NOD mice before (Day 0) and after treatment (Day 8). […] The % of mice with diabetes is plotted over the age of the mice (N=7 mice/group-EtOH; N=8 mice/group-MC903).
# To test whether topical treatment with MC903 would lead to amerilioration of inflammatory disorders, it was tested whether topical application of MC903 protected a mouse against type I diabetes (T1D), using a non-obese diabetes (NOD) mouse model of diabetes. NOD mice were treated 3 times a week with MC903 on alternating ears every week.
# B6 mice [2] = experiment: Experimental allergic encephalitis (EAE) mouse model of multiple sclerosis, topical MC903; type: in vivo; details: topical daily starting 1 day before disease induction, compared to EtOH-treated mice
# Method: FIG. 7 illustrates the clinical score difference among B6 mice topically treated with EtOH or MC903 daily for 2 weeks. The B6 mice were injected with myelin oligodendrocyte glycoprotein (MOG) peptide emulsified in complete Freund's adjuvant (CFA), then received Pertussis toxin intraperitoneally at the time of immunization and 48 h later. The mice were treated with topical EtOH or MC903 daily for 2 weeks. Mice were clinically scored on a five-point scale for signs of disease on the indicated days. N=8 mice/group. P=0.06 by two-way Analysis of variance (ANOVA). To test whether topical MC903 treatment was effective at treating multiple sclerosis (MS), the effect of MC903 in reducing clinical severity of a mouse model of MS known as experimental allergic encephalitis (EAE). Mice were topically treated daily with MC903 starting 1 day before disease induction. […] Thus, topical MC903 treatment might also be beneficial in the treatment of multiple sclerosis.
# B6 mice [3] = experiment: K/BxN serum-induced arthritis mouse model, topical MC903; type: in vivo
# Method: FIGS. 8A-8B comprise graphs illustrating data derived from injecting B6 mice with 75 μl of serum from K/B×N mice on Days 0 and 2, and topically treating the mice with MC903 starting at Day 0. FIG. 8A illustrates the percentage of Tregs in blood of B6 mice determined on Day 8 post MC903 treatment in comparison with EtOH treatment. FIG. 8B illustrates the change of ankle thickness over time after B6 mice were injected with 75 μl of serum from K/B×N mice on Days 0 and 2, and were topically treated with MC903 starting at Day 0. Ankle thickness was measured twice a week and plotted as % maximal ankle thickness of each mouse. N=3 mice/group. Whether MC903 treatment can attenuate joint swelling in a mouse model of rheumatoid arthritis was tested in the following experiment. In this model, serum from arthritic mice (K/B×N) is injected into normal wildtype mice. […] Mice were treated topically with MC903 or EtOH (daily) and injected with arthritogenic serum (on Days 0 and 2).
# TSLP = experiment: Systemic TSLP induction by topical vitamin D3 analogs (ELISA); type: in vivo, mice; details: topical, ear skin bilaterally, 2 nmol/ear in ethanol, after 5 days of treatment
# Tregs = experiment: Treg % in blood and spleen after topical vitamin D3 analogs; type: in vivo, mice; details: topical MC903, summary statement of Example 6
# Source text: FIGS. 10A-10B comprise bar graphs illustrating data derived from topically treating mice with EtOH or EB1089 (0.04 nmol/ear) for 5 days and bleeding them on Day 7. Treg % from (FIG. 10A) blood and (FIG. 10B) spleen are illustrated. N=3 mice/group. *p<0.01 by Student t-test.
# (§1) VDR stimulation of keratinocytes led to TSLP production, which in certain embodiments caused increase in Treg numbers. The effects of two vitamin D3 analogs (22-Oxacalcitriol, also known as 22-OXA, and EB1089) on TSLP production and Treg numbers were evaluated. Similarly to MC903, 22-OXA and EB1089 were applied to the ear skin bilaterally at a dose of 2 nmol/ear dissolved in ethanol. After 5 days of treatment, the mice were bled and serum TSLP levels were measured. […] To avoid the toxic effect, the dose of 22-OXA and EB1089 was lowered to a point where morbidity and mortality of mice was not observed (0.4 nmol/ear for 22-OXA; 0.04 nmol/ear for EB1089). At this dose, no increase in TSLP level was detected in 22-OXA-treated mice (FIG. 9B).
# [4] = Toxicity (morbidity and mortality) of topical vitamin D3 analogs in mice; type: in vivo; details: mouse, in vivo
# Method: as §1
structure (smiles),measurement,setting,value
"C=C1/C(=C\C=C2/CCC[C@]3(C)[C@@H]([C@H](C)/C=C/[C@@H](O)C4CC4)CC[C@@H]23)C[C@@H](O)C[C@@H]1O [MC903, 26,27-cyclo-22-ene-1α,24S-dihydroxyvitamin D3]",time of peak of circulating TSLP levels,[1],6 days
same,circulating Treg levels,"NOD mice; Day 8 post-treatment, compared to vehicle",increased
same,atopic dermatitis under treatment protocol,"NOD mice; topical 3 times a week on alternating ears, 8 weeks",little to no evidence of atopic dermatitis
same,incidence of T1D (two consecutive blood glucose readings >250 mg/dl),NOD mice; topical MC903 compared to vehicle,significantly attenuated
same,clinical severity of EAE,B6 mice [2],attenuated clinical severity
same,joint swelling and erythema after Day 7,B6 mice [3]; concomitant with the elevated Treg percentages,quick reduction
same,circulating Treg levels,"B6 mice [3]; mice injected with arthritogenic serum, topical daily",increased
same,serum TSLP levels,TSLP,can induce TSLP production
same,systemic Treg numbers,Tregs,increase systemic Treg numbers
same,systemic toxicity,[4],without any apparent systemic toxicity

# From patent US11752159B2, “Compositions and methods for suppressing or reducing systemic immune response in a subject” (THE TRUSTEES OF THE UNIVERSITY OF PENNSYLVANIA, priority 2015, dated 2023)
